Read-outs that look alike come from different tables or passages of the source.
Columns and labels:
high-grade CIN = conditions: cited from earlier work
[1] = Bulk density (not tapped); assay type: physicochemical
Method: (§1) As used herein, the “specific surface area (SSA)” is the total surface area of the taxane nanoparticle per unit of taxane mass as measured by the Brunauer-Emmett-Teller (“BET”) isotherm by the following method: a known mass between 200 and 300 mg of the analyte is added to a 30 mL sample tube. […] The automated test is then carried out using the BETWIN® software package and the surface area of each sample is subsequently calculated. The bulk density measurement can be conducted by pouring the taxane nanoparticles into a graduated cylinder without tapping at room temperature, measuring the mass and volume, and calculating the bulk density.

Gottingen minipigs = test: Dermal toxicity study, 28 days, GLP; assay type: in vivo; conditions: topical, daily for 28 days
Method: The GLP-compliant study was conducted in Gottingen minipigs to characterize the toxicity of the formulations applied topically to 10% body surface area daily for 28 days. […] Reversibility of findings was also evaluated following a 2-week recovery period. Parameters evaluated included clinical observations, mortality and moribundity checks, dermal scoring, body weight, food consumption, eye examinations, test site photographs, electrocardiology, clinical pathology, bioanalysis and toxicokinetic evaluation, organ weights, macroscopic pathology and histopathology. There were no formulation-related effects on survival, clinical signs, dermal irritation, body weights, body weight gains, food consumption, ophthalmic findings, or cardiology parameters.

[2] = Specific surface area (SSA), BET isotherm; assay type: physicochemical
Method: as §1

[3] = Particle size of paclitaxel nanoparticle lots (ACCUSIZER 780); assay type: physicochemical
Method: Instrument parameters: Max. Concentration: 9000 particles/mL, No. containers: 1, Sensor Range: Summation, Lower Detection Limit: 0.5 μm, Flow Rate: 30 mL/min, No. Analysis pulls: 4, Time between pulls: 1 sec, Pull volume: 10 mL, Tare Volume: 1 mL, Prime volume: 1 mL, Include First Pull: Not Selected.
Vortexed for 5-10 minutes and sonicated in a water batch for 1 minute.
Method: Filled a plastic bottle with filtered (0.22 μm) 0.1% w/w SDS solution and analyzed the Background.

[4] = Crystal growth of paclitaxel nanoparticles, visual observation by light microscopy; assay type: physicochemical
[5] = Solubility of paclitaxel in various solvents (HPLC); assay type: physicochemical
Method: Step “d” was continued for each vial for a total of 48 hours.

[6] = methanol/water 15/85 (v/v), 37° C., pH 7, 75 rpm, cited from earlier work
rabbit skin = conditions: Draize rabbit skin test model; cited from earlier work
[7] = summary statement on the cited study; cited from earlier work
[8] = lot used in formulas listed in Table 3
[9] = lot used in formulas listed in Tables 16-19

CC(C)Cn1cnc2c(N)nc3ccccc3c21 [Imiquimod]
tolerability (high-grade CIN; despite frequent adverse effects such as vaginal discharge, vulvar pain, fever, headache, and fatigue): generally well-tolerated | efficacy in the treatment of high-grade CIN (high-grade CIN; topically applied to the ectocervix): some efficacy

CC(=O)O[C@H]1C(=O)[C@@]2(C)[C@H]([C@H](OC(=O)c3ccccc3)[C@]3(O)C[C@H](OC(=O)[C@H](O)[C@@H](NC(=O)c4ccccc4)c4ccccc4)C(C)=C1C3(C)C)[C@]1(OC(C)=O)CO[C@@H]1C[C@@H]2O [Paclitaxel nanoparticles, paclitaxel]
bulk density (not-tapped) [1, 8]: 0.05 g/mL | bulk density (not-tapped) [1, 9]: 0.09 g/mL | effect of the presence of the nanoparticles in the formulations on dermal irritation (Gottingen minipigs): negligible effect | SSA [2, 8]: 41.24 m^2/g | SSA [2, 9]: 26.72 m^2/g | Particle size, Mean (number-weighted differential distribution) [3, 8]: 0.861 μm | Particle size, Median (number-weighted differential distribution) [3, 8]: 0.710 μm | Particle size, Mode (number-weighted differential distribution) [3, 8]: 0.572 μm | Particle size, Mean (number-weighted differential distribution) [3, 9]: 0.83 μm | Needle shaped crystals observed? (visual observation by light microscopy) ([4]; in Aluminum sulfate 0.1-0.2% in water, 7 days, RT): Yes, >5 μm, @ | Needle shaped crystals observed? (visual observation by light microscopy) ([4]; in Ammonium lauryl sulfate 2% in water, 3 days, RT): Yes, >5 μm @ | Needle shaped crystals observed? (visual observation by light microscopy) ([4]; in Benzalkonium chloride (50%) 2% in water, 7 days & 21 days, RT): No, <5 μm @ | Needle shaped crystals observed? (visual observation by light microscopy) ([4]; in CARBOPOL ULTREZ 10 (with Ammonium hydroxide as neutralizer) 0.5% in water, 8 days & 21 days, RT): No, <5 μm, @ | Needle shaped crystals observed? (visual observation by light microscopy) ([4]; in Castor Oil 100%, 24 hrs & 9 days, RT): No, <5 μm @ | Needle shaped crystals observed? (visual observation by light microscopy) ([4]; in Dimethicone, 1000 cSt 100%, 24 hrs & 6 days, RT): No, <5 μm @ | Needle shaped crystals observed? (visual observation by light microscopy) ([4]; in FOMBLIN HC04 100%, 4, 7 & 13 days, RT): No, <5 μm @ | Needle shaped crystals observed? (visual observation by light microscopy) ([4]; in Hydroxyethyl cellulose 1% in water, 7 days, RT): Yes, >5 μm, @ | Needle shaped crystals observed? (visual observation by light microscopy) ([4]; in Hydroxypropyl methylcellulose 1% in water, 3 days, RT): Yes, >5 μm @ | Needle shaped crystals observed? (visual observation by light microscopy) ([4]; in Lecithin 1% in water, 24 hrs, RT): Yes, >10 μm, @ | Needle shaped crystals observed? (visual observation by light microscopy) ([4]; in Light Mineral Oil NF 100%, 3 days, RT & 40 C.): No, <5 μm @ | Needle shaped crystals observed? (visual observation by light microscopy) ([4]; in Magnesium nitrate 5% in water, 3 days, RT): Yes, >5 μm @ | Needle shaped crystals observed? (visual observation by light microscopy) ([4]; in Mannitol 5% in water, 7 days, RT): Yes, >5 μm, @ | Needle shaped crystals observed? (visual observation by light microscopy) ([4]; in Mineral Oil USP (heavy) 100%, 3 days, RT & 40 C.): No, <5 μm @ | Needle shaped crystals observed? (visual observation by light microscopy) ([4]; in PEG 400 10% in water, 22 days, RT & 60 C.): Yes, >5 μm @ | Needle shaped crystals observed? (visual observation by light microscopy) ([4]; in Poloxamer 188 2% in water, 7 days, RT): Yes, >5 μm @ | Needle shaped crystals observed? (visual observation by light microscopy) ([4]; in Poloxamer 407 2% in water, 5 & 7 days, RT): No, <5 μm @ | Needle shaped crystals observed? (visual observation by light microscopy) ([4]; in Polyoxyl 40 Hydrogenated Castor Oil (KOLLIPHOR RH40) 1% in water, 6 days, RT): Yes, <5 μm @ | Needle shaped crystals observed? (visual observation by light microscopy) ([4]; in Polysorbate 80 0.5% in Saline, 7 days, RT & 60 C.): Yes, >5 μm @ | Needle shaped crystals observed? (visual observation by light microscopy) ([4]; in Polysorbate 80 0.5% in water, 22 days, RT & 60 C.): Yes, <5 μm @ | Needle shaped crystals observed? (visual observation by light microscopy) ([4]; in Povidone 1% in water, 7 days & 21 days, RT): Yes, <5 μm @ | Needle shaped crystals observed? (visual observation by light microscopy) ([4]; in Proline 3% in water, 7 days, RT): Yes, >5 μm, @ | Needle shaped crystals observed? (visual observation by light microscopy) ([4]; in Purified Water 100%, 5 days, RT & 60 C.): Yes, >5 μm, @ | Needle shaped crystals observed? (visual observation by light microscopy) ([4]; in ST-Cyclomethicone 5 NF 100%, 24 hrs & 13 days, RT): No, <5 μm @ | Needle shaped crystals observed? (visual observation by light microscopy) ([4]; in Saline 0.9% NaCl in water, 7 days, RT & 60 C.): Yes, >10 μm, @ | Needle shaped crystals observed? (visual observation by light microscopy) ([4]; in Sodium lauryl sulfate 2% in water, 7 days, RT): Yes, >5 μm, @ | Needle shaped crystals observed? (visual observation by light microscopy) ([4]; in Sodium phosphate monobasic 0.75% in water, 7 days, RT): Yes, >5 μm, @ | Needle shaped crystals observed? (visual observation by light microscopy) ([4]; in Sorbitol 5% in water, 7 days, RT): Yes, >5 μm, @ | Needle shaped crystals observed? (visual observation by light microscopy) ([4]; in Vitamin E TPGS 0.5% in water, 6 days, RT): Yes, <5 μm @ | Needle shaped crystals observed? (visual observation by light microscopy) ([4]; in Zinc acetate […] in water, 7 days, RT): Yes, >5 μm, @ | crystal growth ([4]; in any of the hydrophobic carriers of Table 2): did not grow | crystal growth ([4]; in aqueous solutions of benzalkonium chloride, CARBOPOL ULTREZ 10, or poloxamer 407): did not grow

CC(=O)O[C@H]1C(=O)[C@@]2(C)[C@H]([C@H](OC(=O)c3ccccc3)[C@]3(O)C[C@H](OC(=O)[C@H](O)[C@@H](NC(=O)c4ccccc4)c4ccccc4)C(C)=C1C3(C)C)[C@]1(OC(C)=O)CO[C@@H]1C[C@@H]2O [Paclitaxel, paclitaxel]
Paclitaxel Solubility at RT ([5]; in Benzyl Alcohol, NF): 17.02% w/w | Paclitaxel Solubility at RT ([5]; in Diethylene Glycol Monoethyl Ether, NF (TRANSCUTOL P)): 33.10% w/w | Paclitaxel Solubility at RT ([5]; in Diisopropyl Adipate (CERAPHYL 230)): 3.51% w/w | Paclitaxel Solubility at RT ([5]; in Dimethyl Isosorbide): 38.22% w/w | Paclitaxel Solubility at RT ([5]; in Hexylene Glycol): 4.07% w/w | Paclitaxel Solubility at RT ([5]; in Isopropyl Myristate, NF): 0.048% w/w | Paclitaxel Solubility at RT ([5]; in Medium Chain Triglycerides, NF): 0.32% w/w | Paclitaxel Solubility at RT ([5]; in Mineral Oil, USP (heavy)): 0.3 ppm | Paclitaxel Solubility at RT ([5]; in Polyethylene Glycol 400, NF): 22.30% w/w | Paclitaxel Solubility at RT ([5]; in Propylene Carbonate): 4.74% w/w | Paclitaxel Solubility at RT ([5]; in Propylene Glycol, USP): 0.88% w/w | Paclitaxel Solubility at RT ([5]; in Super Refined Oleic Acid, NF): 0.041% w/w | Paclitaxel Solubility at RT ([5]; in Super Refined Oleyl Alcohol, NF): 0.38% w/w | solubility of paclitaxel in water ([5]; in water, method of Example 1): less than 0.05 ppm

CC(=O)O[C@@]12CO[C@@H]1C[C@H](O)[C@@]1(C)C(=O)[C@H](O)C3=C(C)[C@@H](OC(=O)[C@H](O)[C@@H](NC(=O)OC(C)(C)C)c4ccccc4)C[C@@](O)([C@@H](OC(=O)c4ccccc4)[C@H]21)C3(C)C [docetaxel nanoparticles, docetaxel]
dissolution rate, % dissolved in 30 minutes ([6]; nanoparticles made by milling): 9% | dissolution rate, % dissolved in 30 minutes ([6]; nanoparticles made by the supercritical carbon dioxide method): 27%

CCCCCCCCCCCCN1CCCCCC1=O [laurocapram, 1-Dodecyl azacycloheptan-2-one]
local skin irritation (rabbit skin): edema and erythema have been observed

Cyclomethicone
irritation to vaginal tissues [7]: non-irritating
